Results: patent US11472808B2, “Substituted pyrrolo[1,2-c]pyrimidines as hepatitis B antiviral agents” (Enanta Pharmaceuticals, Inc., priority 2019, dated 2022)

Experiments:
HBV = assay: HepAD38 anti-HBV assay: reduction of viral product accumulation (virion DNA qPCR, HBsAg/HBeAg ELISA); format: cell-based; settings: Hepatitis B virus, 120 h; HepAD38 cells; concentration reducing viral product accumulation by 50% relative to no drug controls; harvest five days after compound addition; read-out: HepAD38 EC50
Procedure, shortened: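 Tetracycline-free HepAD38 cells treated 5 days with compound (1:200 DMSO dilution), or 8 days with media and compound refreshed on d2 and d5. Virion DNA quantified by qPCR; HBsAg or HBeAg by ELISA. EC50 is the concentration reducing viral product accumulation 50% versus no-drug controls.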

[1] = Compound toxicity, ATPLite total ATP levels; format: cell-based; settings: human, HepG2 cells; concentration reducing total ATP levels by 50% relative to no drug controls; ATPLite three days after compound addition
Protocol: Compound toxicity is evaluated by seeding cells at 15,000 cells/well and treating with compound as described above.

Structure (SMILES)	EC50 (HBV) [µM]	CC50 at 3 days [1] [µM]
O=S(=O)(N[C@H]1CC2=C(c3ccn(C(F)F)n3)[C@H](c3ccc(F)cc3Cl)N=C(c3nccs3)N2C1)c1ccccn1 [Example 364]	< 0.1	> 25
O=S(=O)(CCl)N[C@H]1CC2=C(c3ccn(C(F)F)n3)[C@H](c3ccc(F)cc3Cl)N=C(c3nccs3)N2C1 [Example 70]	< 0.1	> 25
O=S(=O)(N[C@H]1CC2=C(c3ccn(C(F)F)n3)[C@H](c3ccc(F)cc3Cl)N=C(c3nccs3)N2C1)N1CCC(O)(c2cccnc2)CC1 [Example 264]	< 0.1	> 25
O=S(=O)(N[C@H]1CC2=C(c3ccn(C(F)F)n3)[C@H](c3ccc(F)cc3Cl)N=C(c3nccs3)N2C1)c1ccc(Br)cc1 [Example 389]	< 0.1	> 25
O=S(=O)(N[C@H]1CC2=C(c3ccn(C(F)F)n3)[C@H](c3ccc(F)cc3Cl)N=C(c3nccs3)N2C1)N1CCC(O)(c2ccncc2)CC1 [Example 259]	< 0.1	> 25
O=S(=O)(N[C@H]1CC2=C(c3ccn(C(F)F)n3)[C@H](c3ccc(F)cc3Cl)N=C(c3nccs3)N2C1)c1cccc(C(O)c2ccccn2)c1 (stereo partly shown) [Example 339]	< 0.1	> 25
O=S(=O)(N[C@H]1CC2=C(c3ccn(C(F)F)n3)[C@H](c3ccc(F)cc3Cl)N=C(c3nccs3)N2C1)C1(c2ccccn2)CC1 [Example 377]	< 0.1	> 25
O=S(=O)(N[C@H]1CC2=C(c3ccn(C(F)F)n3)[C@H](c3ccc(F)cc3Cl)N=C(c3nccs3)N2C1)c1ccc([C@H]2CC[C@](O)(c3ccccn3)CC2)cc1 [Example 385]	< 0.1	> 25
O=C1NC2(CO1)CN(S(=O)(=O)N[C@H]1CC3=C(c4ccn(C(F)F)n4)[C@H](c4ccc(F)cc4Cl)N=C(c4nccs4)N3C1)C2 [Example 358]	< 0.1	> 25
CS(=O)(=O)CS(=O)(=O)N[C@H]1CC2=C(c3ccn(C(F)F)n3)[C@H](c3ccc(F)cc3Cl)N=C(c3nccs3)N2C1 [Example 335]	< 0.1	> 25
O=S(=O)(NC(c1ccccn1)c1ccccn1)N[C@H]1CC2=C(c3ccn(C(F)F)n3)[C@H](c3ccc(F)cc3Cl)N=C(c3nccs3)N2C1 [Example 361]	< 0.1	> 25
O=S(=O)(N[C@H]1CC2=C(c3ccn(C(F)F)n3)[C@H](c3ccc(F)cc3Cl)N=C(c3nccs3)N2C1)N1CCC(O)(c2ccccn2)CC1 [Example 266]	< 0.1	> 25
O=S(=O)(N[C@H]1CC2=C(c3ccn(C(F)F)n3)[C@H](c3ccc(F)cc3Cl)N=C(c3nccs3)N2C1)C1(C[C@@H](O)CO)CC1 [Example 424]	< 0.1	> 25
O=S(=O)(N[C@H]1CC2=C(c3ccn(C(F)F)n3)[C@H](c3ccc(F)cc3Cl)N=C(c3nccs3)N2C1)N1CCC(O)(C2CC2)CC1 [Example 270]	< 0.1	< 10
O=S(=O)(NCCCO)N[C@H]1CC2=C(c3ccn(C(F)F)n3)[C@H](c3ccc(F)cc3Cl)N=C(c3nccs3)N2C1 [Example 79]	< 0.1	> 25
COCCNS(=O)(=O)N[C@H]1CC2=C(c3ccn(C(F)F)n3)[C@H](c3ccc(F)cc3Cl)N=C(c3nccs3)N2C1 [Example 80]	< 0.1	> 25
O=S(=O)(N[C@H]1CC2=C(c3ccn(C(F)F)n3)[C@H](c3ccc(F)cc3Cl)N=C(c3nccs3)N2C1)[C@H]1CC[C@@H](O)CC1 [Example 99]	< 0.1	> 25
O=Cc1ccc(S(=O)(=O)N[C@H]2CC3=C(c4ccn(C(F)F)n4)[C@H](c4ccc(F)cc4Cl)N=C(c4nccs4)N3C2)cc1 [Example 332]	< 0.1	> 25
O=S(=O)(N[C@H]1CC2=C(c3ccn(C(F)F)n3)[C@H](c3ccc(F)cc3Cl)N=C(c3nccs3)N2C1)c1ccccc1F [Example 387]	< 0.1	> 25
O=S(=O)(N[C@H]1CC2=C(c3ccn(C(F)F)n3)[C@H](c3ccc(F)cc3Cl)N=C(c3nccs3)N2C1)c1cccc(-c2cccnc2)n1 [Example 378]	< 0.1	> 25
O=S(=O)(N[C@H]1CC2=C(c3ccn(C(F)F)n3)[C@H](c3ccc(F)cc3Cl)N=C(c3nccs3)N2C1)N[C@H]1C[C@@H](O)C1 [Example 156]	< 0.1	> 25

Structure (SMILES)	EC50 (HBV) [µM]	CC50 at 3 days [1] [µM]
O=C1OCCN1C1CCN(S(=O)(=O)N[C@H]2CC3=C(c4ccn(C(F)F)n4)[C@H](c4ccc(F)cc4Cl)N=C(c4nccs4)N3C2)CC1 [Example 302]	< 0.1	> 25
CS(=O)(=O)NC1CCN(S(=O)(=O)N[C@H]2CC3=C(c4ccn(C(F)F)n4)[C@H](c4ccc(F)cc4Cl)N=C(c4nccs4)N3C2)C1 (stereo partly shown) [Example 290]	< 0.1	> 25
O=S(=O)(N[C@H]1CC2=C(c3ccn(C(F)F)n3)[C@H](c3ccc(F)cc3Cl)N=C(c3nccs3)N2C1)N1CCC[C@@H]1C(F)(F)F [Example 287]	< 0.1	10 to 25
O=S(=O)(N[C@H]1CC2=C(c3ccn(C(F)F)n3)[C@H](c3ccc(F)cc3Cl)N=C(c3nccs3)N2C1)N[C@H]1C[C@H](O)C1 [Example 157]	< 0.1	> 25
O=S(=O)(N[C@H]1CC2=C(c3ccn(C(F)F)n3)[C@H](c3ccc(F)cc3Cl)N=C(c3nccs3)N2C1)N[C@H](c1ccccn1)C1CC1 [Example 353]	< 0.1	> 25
C[C@]1(O)CC[C@H](c2ccc(S(=O)(=O)N[C@H]3CC4=C(c5ccn(C(F)F)n5)[C@H](c5ccc(F)cc5Cl)N=C(c5nccs5)N4C3)cc2)CC1 [Example 411]	< 0.1	10 to 25
O=C(N[C@H]1CC2=C(c3ccn(C(F)F)n3)[C@H](c3ccc(F)cc3Cl)N=C(c3nccs3)N2C1)c1ccccn1 [Example 214]	< 0.1	10 to 25
O=S(=O)(N[C@H]1CC2=C(c3ccn(C(F)F)n3)[C@H](c3ccc(F)cc3Cl)N=C(c3nccs3)N2C1)C1(CCO)CC1 [Example 379]	< 0.1	10 to 25
N#CCCCS(=O)(=O)N[C@H]1CC2=C(c3ccn(C(F)F)n3)[C@H](c3ccc(F)cc3Cl)N=C(c3nccs3)N2C1 [Example 135]	< 0.1	> 25
O=C1OCCN1S(=O)(=O)N[C@H]1CC2=C(c3ccn(C(F)F)n3)[C@H](c3ccc(F)cc3Cl)N=C(c3nccs3)N2C1 [Example 72]	< 0.1	> 25
O=S(=O)(N[C@H]1CC2=C(c3ccn(C(F)F)n3)[C@H](c3ccc(F)cc3Cl)N=C(c3nccs3)N2C1)c1ccc(C(O)c2ccccn2)cc1 (stereo partly shown) [Example 334]	< 0.1	< 10
CC(C)[C@H](NS(=O)(=O)N[C@H]1CC2=C(c3ccn(C(F)F)n3)[C@H](c3ccc(F)cc3Cl)N=C(c3nccs3)N2C1)c1ccccn1 [Example 342]	< 0.1	> 25
O=S(=O)(N[C@H]1CC2=C(c3ccn(C(F)F)n3)[C@H](c3ccc(F)cc3Cl)N=C(c3nccs3)N2C1)N1CCC[C@@H](O)C1 [Example 94]	< 0.1	> 25
O=S(=O)(CCCCO)N[C@H]1CC2=C(c3ccn(C(F)F)n3)[C@H](c3ccc(F)cc3Cl)N=C(c3nccs3)N2C1 [Example 280]	< 0.1	> 25
O=S(=O)(N[C@H]1CC2=C(c3ccn(C(F)F)n3)[C@H](c3ccc(F)cc3Cl)N=C(c3nccs3)N2C1)N1CCCCC1 [Example 73]	< 0.1	10 to 25
O=S(=O)(N[C@H]1CC2=C(c3ccn(C(F)F)n3)[C@H](c3ccc(F)cc3Cl)N=C(c3nccs3)N2C1)N1CCC(CO)CC1 [Example 88]	< 0.1	> 25
O=S(=O)(N[C@H]1CC2=C(c3ccn(C(F)F)n3)[C@H](c3ccc(F)cc3Cl)N=C(c3nccs3)N2C1)N1CC[C@H](O)C1 [Example 91]	< 0.1	> 25
O=S(=O)(N[C@H]1CC2=C(c3ccn(C(F)F)n3)[C@H](c3ccc(F)cc3Cl)N=C(c3nccs3)N2C1)N[C@H]1CC[C@@H](O)CC1 [Example 154]	< 0.1	> 25
O=S(=O)(N[C@H]1CC2=C(c3ccn(C(F)F)n3)[C@H](c3ccc(F)cc3Cl)N=C(c3nccs3)N2C1)N1CC2CC2C1 (stereo partly shown) [Example 273]	< 0.1	< 10
O=S(=O)(NCCc1ccccn1)N[C@H]1CC2=C(c3ccn(C(F)F)n3)[C@H](c3ccc(F)cc3Cl)N=C(c3nccs3)N2C1 [Example 309]	< 0.1	> 25
